The results in this text go back to patent US20130123254A1, “PHARMACEUTICALLY ACCEPTABLE MGLUR5 POSITIVE ALLOSTERIC MODULATORS AND THEIR METHODS OF IDENTIFICATION” (priority 2011, published 2013).

A short description of series [1]: HTD/LTD dose, tolerability in rat. As to conditions: for HTD/LTD Dose (rat) (observation): observation at the HTD/LTD dose.
Another series is described as follows: Body temperature test. In kind it is in vivo. The settings on record: rat, body temperature at 2 h, read-out: BT test MED (rat). On the procedure: Principle: Evaluation of the effect of a compound on core body temperature at a 2-h interval in the rat.
The temperature decrease in rats upon administration of mGluR5 negative allosteric modulators (antagonists) is well documented Warty & al.; Psychopharmacology (2005) 179: 207-217 (DOI 10.1007/s00213-005-2143-4)).
Male Sprague Dawley Rats (OFA-SD, Charles River, ˜250 g) are weighed and isolated for at least 30 min before compound injection in type II Makrolon cages. Before injection of the mGlu5 PAM compound, rectal body temperature is measured with a thermometer with a special rat probe for ˜20 s. The probe is dipped in glycerin before each use. Immediately after compound administration, rats are placed back in the type 2 cage. After 2 hours, the body temperature of each rat is measured again. The difference in absolute body temperature as well as the temperature difference delta T2-T0 between vehicle and compound injected rats is analysed.

Series [2] has as its target T1, human mGlu5a receptor (Homo sapiens, UniProt P41594).
T1 construct: expressed in transfected cells
As to the kind of experiment: Shift factor in Ca2+ mobilization assay (human). In kind it is cell-based. As to conditions: shift factor = EC50(glutamate)/EC50(glutamate + test compound). On the technique in general: A change in cytosolic calcium serves as a functional read-out for many receptors and channels.
Experimental: A monoclonal HEK-293 cell line stably transfected with a cDNA encoding for the human mGlu5a receptor was generated; for the work with mGlu5 Positive Allosteric Modulators (PAMs), a cell line with low receptor expression levels and low constitutive receptor activity was selected to allow the differentiation of agonistic versus PAM activity. Cells were cultured according to standard protocols (Freshney, 2000) in Dulbecco's Modified Eagle Medium with high glucose supplemented with 1 mM glutamine, 10% (vol/vol) heat-inactivated bovine calf serum, Penicillin/Streptomycin, 50 μg/ml hygromycin and 15 μg/ml blasticidin (all cell culture reagents and antibiotics from Invitrogen, Basel, Switzerland).
About 24 hrs before an experiment, 5×10^4 cells/well were seeded in poly-D-lysine coated, black/clear-bottomed 96-well plates. The cells were loaded with 2.5 μM Fluo-4AM in loading buffer (1×HBSS, 20 mM HEPES) for 1 hr at 37° C. and washed five times with loading buffer. The cells were transferred into a Functional Drug Screening System 7000 (Hamamatsu, Paris, France), and 11 half logarithmic serial dilutions of test compound at 37° C. were added and the cells were incubated for 10-30 min. with on-line recording of fluorescence. Following this pre-incubation step, the agonist L-glutamate was added to the cells at a concentration corresponding to EC20 (typically around 80 μM) with on-line recording of fluorescence; in order to account for day-to-day variations in the responsiveness of cells, the EC20 of glutamate was determined immediately ahead of each experiment by recording of a full dose-response curve of glutamate.
(§1) The shift factor is calculated for a specific concentration of the test compound according to the equation: Shift factor=EC50(glutamate)/EC50(glutamate+×uM test compound).
(§2) On the same 96-well plate a serial dilution of glutamate is added to a) cells previously incubated for 10-30 min. with a fixed concentration of an mGlu5 PAM test compound and b) cells not incubated with mGlu5 PAM test compound. The peak fluorescence signals obtained from cells with or without pre-incubation with mGlu5 PAM test compound is plotted as illustrated, and the two EC50 values are derived from the plot. The shift factor is specific for the concentration of the test compound used and calculated as follows: Shift factor=ECM50(glutamate)/EC50(glutamate+×μM test compound).

For a further series, the target named is T2, mGlu5 receptor (Rattus norvegicus, UniProt P31424).
T2 construct: expressed in transfected cells
T2 sequence (P31424 21-1203): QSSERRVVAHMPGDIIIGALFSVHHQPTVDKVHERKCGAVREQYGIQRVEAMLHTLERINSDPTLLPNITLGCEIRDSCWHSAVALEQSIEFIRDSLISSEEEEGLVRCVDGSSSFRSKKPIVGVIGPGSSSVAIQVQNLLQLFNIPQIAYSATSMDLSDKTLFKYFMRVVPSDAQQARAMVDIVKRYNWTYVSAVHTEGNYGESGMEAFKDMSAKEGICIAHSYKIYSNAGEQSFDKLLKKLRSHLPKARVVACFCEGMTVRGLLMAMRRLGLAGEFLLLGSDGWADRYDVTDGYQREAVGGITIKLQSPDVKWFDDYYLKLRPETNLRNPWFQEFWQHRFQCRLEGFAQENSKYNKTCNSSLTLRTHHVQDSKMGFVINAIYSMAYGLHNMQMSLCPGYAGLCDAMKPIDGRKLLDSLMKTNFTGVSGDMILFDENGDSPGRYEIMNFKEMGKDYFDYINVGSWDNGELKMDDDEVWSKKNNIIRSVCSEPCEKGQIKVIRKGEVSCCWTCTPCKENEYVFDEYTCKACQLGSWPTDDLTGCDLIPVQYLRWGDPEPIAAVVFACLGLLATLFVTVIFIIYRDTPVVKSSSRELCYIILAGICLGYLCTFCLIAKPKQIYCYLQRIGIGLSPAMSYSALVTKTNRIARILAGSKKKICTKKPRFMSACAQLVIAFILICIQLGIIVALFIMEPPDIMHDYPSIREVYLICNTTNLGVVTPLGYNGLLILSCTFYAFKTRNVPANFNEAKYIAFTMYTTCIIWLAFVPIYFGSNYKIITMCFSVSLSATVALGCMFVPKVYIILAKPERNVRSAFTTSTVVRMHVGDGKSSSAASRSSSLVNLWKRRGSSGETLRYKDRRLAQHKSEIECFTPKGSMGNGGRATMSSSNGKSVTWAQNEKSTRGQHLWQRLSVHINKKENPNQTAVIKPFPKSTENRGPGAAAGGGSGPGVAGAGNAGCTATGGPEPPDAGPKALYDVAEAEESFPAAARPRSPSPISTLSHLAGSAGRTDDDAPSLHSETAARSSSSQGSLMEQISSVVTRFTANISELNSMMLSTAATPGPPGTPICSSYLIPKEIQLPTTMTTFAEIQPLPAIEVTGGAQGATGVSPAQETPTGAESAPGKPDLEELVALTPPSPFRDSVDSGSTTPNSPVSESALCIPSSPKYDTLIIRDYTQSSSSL
Put plainly: Shift factor in Ca2+ mobilization assay (rat). Type of series: cell-based.

For series [3], the target named is T1, human mGlu5a receptor. As to the kind of experiment: Intracellular Ca2+ mobilization assay, PAM EC50 and efficacy at EC20 of L-glutamate. In kind it is cell-based. As to conditions: maximal response relative to saturating L-glutamate, FIGS. 4 and 5.

T1 sequence (P41594 21-1180 isoform P41594-2 limits assumed): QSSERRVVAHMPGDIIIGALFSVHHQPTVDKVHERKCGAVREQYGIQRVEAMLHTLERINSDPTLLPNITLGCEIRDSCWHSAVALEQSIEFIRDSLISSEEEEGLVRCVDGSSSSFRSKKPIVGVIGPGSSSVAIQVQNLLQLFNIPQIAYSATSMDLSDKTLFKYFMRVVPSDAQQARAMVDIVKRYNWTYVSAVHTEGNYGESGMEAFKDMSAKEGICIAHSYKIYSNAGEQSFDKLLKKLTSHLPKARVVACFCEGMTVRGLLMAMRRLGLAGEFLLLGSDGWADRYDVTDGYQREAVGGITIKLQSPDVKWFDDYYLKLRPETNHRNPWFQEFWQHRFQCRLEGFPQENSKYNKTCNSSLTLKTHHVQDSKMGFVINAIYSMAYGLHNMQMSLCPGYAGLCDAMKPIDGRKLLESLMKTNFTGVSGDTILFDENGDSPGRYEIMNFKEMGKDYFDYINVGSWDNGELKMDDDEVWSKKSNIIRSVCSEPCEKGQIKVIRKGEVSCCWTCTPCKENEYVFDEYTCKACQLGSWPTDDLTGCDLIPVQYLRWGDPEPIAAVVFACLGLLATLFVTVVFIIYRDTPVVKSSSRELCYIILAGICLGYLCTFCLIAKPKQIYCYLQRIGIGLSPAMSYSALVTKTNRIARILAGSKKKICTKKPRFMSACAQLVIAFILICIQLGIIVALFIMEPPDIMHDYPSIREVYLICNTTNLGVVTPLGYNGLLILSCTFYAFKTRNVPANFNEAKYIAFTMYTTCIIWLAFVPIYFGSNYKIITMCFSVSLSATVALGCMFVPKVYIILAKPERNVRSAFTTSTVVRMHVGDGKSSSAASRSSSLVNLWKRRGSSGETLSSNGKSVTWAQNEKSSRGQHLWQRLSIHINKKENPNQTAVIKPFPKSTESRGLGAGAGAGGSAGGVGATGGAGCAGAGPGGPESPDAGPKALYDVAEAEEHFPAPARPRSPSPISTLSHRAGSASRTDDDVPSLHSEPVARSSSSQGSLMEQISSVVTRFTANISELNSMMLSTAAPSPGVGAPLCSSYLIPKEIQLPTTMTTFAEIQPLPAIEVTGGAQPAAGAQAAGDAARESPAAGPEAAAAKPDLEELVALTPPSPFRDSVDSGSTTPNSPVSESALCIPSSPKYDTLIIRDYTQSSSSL
Experimental for mGlu5 receptor: as §1, §2

For `CC1(C)CC(=O)N(c2ccc(C#Cc3cccc(F)c3)cn2)N1` [Example 1], in series [1], the “HTD/LTD Dose (rat)” value is 100 mg/kg and the “HTD/LTD Dose (rat) (observation)” value is “well tolerated”. In addition, the minimal effective dose in the series “Body temperature test” stood at 0.3 mg/kg. Besides, the “Shift (hum, 10 uM)” value on human mGlu5a receptor [2] worked out at 1.75. In addition, the “Shift (rat, 10 uM)” value at mGlu5 receptor was determined as 1.44. The efficacy entry on human mGlu5a receptor [3] is recorded as “low efficacy”.
As for `CN1C(=O)N(c2ccc(C#Cc3ccccc3)cn2)[C@@H]2CCC[C@@H]21` [Example 2], in series [1], the “HTD/LTD Dose (rat)” value is 100 mg/kg and the “HTD/LTD Dose (rat) (observation)” value is “well tolerated”. Further, the minimal effective dose in “Body temperature test” is 0.1 mg/kg. Further, the “Shift (hum, 10 uM)” value at human mGlu5a receptor [2] was 1.02. Also, at mGlu5 receptor, the “Shift (rat, 10 uM)” value turned out to be 0.88.
Take `CN1C(=O)N(c2ccc(C#Cc3cccc(F)c3)cn2)[C@@H]2CCC[C@@H]21` [Example 3]: in series [1], the “HTD/LTD Dose (rat)” value amounted to 100 mg/kg and the “HTD/LTD Dose (rat) (observation)” value was “well tolerated”. Also, the minimal effective dose in the series “Body temperature test” came out at 0.1 mg/kg. For the same molecule, the “Shift (hum, 10 uM)” value on human mGlu5a receptor [2] was 0.87. Besides, on mGlu5 receptor, the “Shift (rat, 10 uM)” value was 0.82.
Taken in the same sequence, the figures for `CN1C(=O)N(c2ccc(C#Cc3ccccc3)nn2)[C@@H]2CCC[C@@H]21` [Example 4] were 100 mg/kg, “well tolerated”, 0.1 mg/kg, 2.46 and 1.70.
Take `CN1C(C)(C)CN(c2ccc(C#Cc3ccccc3)cn2)S1(=O)=O` [Example 5]: in series [1], the “HTD/LTD Dose (rat)” value is 100 mg/kg and the “HTD/LTD Dose (rat) (observation)” value is reported as “well tolerated”. Further, the minimal effective dose in “Body temperature test” is 0.3 mg/kg. In addition, the “Shift (hum, 10 uM)” value on human mGlu5a receptor [2] is reported as 2.02. In addition, the “Shift (rat, 10 uM)” value at mGlu5 receptor was 1.66.
Consider `CC1(C)CN(c2ccc(C#Cc3cccc(F)c3)cn2)C(=O)O1` [Example 6], for which, in series [1], the “HTD/LTD Dose (rat)” value came out at 100 mg/kg and the “HTD/LTD Dose (rat) (observation)” value is on record as “well tolerated”. Besides, the minimal effective dose in the series “Body temperature test” is 0.3 mg/kg. Further, on human mGlu5a receptor [2], the “Shift (hum, 10 uM)” value came out at 1.40. Also, on mGlu5 receptor, the “Shift (rat, 10 uM)” value was 1.90.
Taken in the same sequence, the figures for `CN1C(=O)N(c2ncc(C#Cc3ccc(F)cc3)cn2)CC1(C)C` [Example 7] were 100 mg/kg, “well tolerated”, 0.3 mg/kg, 2.44 and 1.80.
In the case of `CN1C(=O)N(c2ccc(C#Cc3cncc(Cl)c3)cn2)CC1(C)C` [Example 8], in series [1], the “HTD/LTD Dose (rat)” value amounted to 100 mg/kg and the “HTD/LTD Dose (rat) (observation)” value was “well tolerated”. Further, the minimal effective dose in the series “Body temperature test” stood at 1 mg/kg. The “Shift (hum, 10 uM)” value at human mGlu5a receptor [2] is 3.60. Further, the “Shift (rat, 10 uM)” value at mGlu5 receptor was 2.28.
Regarding `CC1(C)CN(c2ccc(C#Cc3ccccc3)cn2)C(=O)O1` [Example 9], in series [1], the “HTD/LTD Dose (rat)” value was found to be 30 mg/kg and the “HTD/LTD Dose (rat) (observation)” value is on record as “well tolerated”. For the same molecule, in “Body temperature test”, the minimal effective dose came out at 1 mg/kg. At human mGlu5a receptor [2], the “Shift (hum, 10 uM)” value is 1.70. The “Shift (rat, 10 uM)” value on mGlu5 receptor is given as 2.63.
Taken in the same sequence, the figures for `CO[C@@H]1C(=O)N(c2ncc(C#Cc3cccc(F)c3)cn2)CC1(C)C` [Example 10] were 100 mg/kg, “well tolerated”, 0.3 mg/kg, 3.46 and 2.62.
For the molecule `CN(C(=O)c1ncc(C#Cc2cccc(F)c2)cn1)C(C)(C)C` [Example 11], in series [1], the “HTD/LTD Dose (rat)” value worked out at 100 mg/kg and the “HTD/LTD Dose (rat) (observation)” value is reported as “well tolerated”. Moreover, the minimal effective dose in the series “Body temperature test” was 0.1 mg/kg. The “Shift (hum, 10 uM)” value at human mGlu5a receptor [2] came to 2.06. The “Shift (rat, 10 uM)” value at mGlu5 receptor was determined as 1.86.
`CN(C(=O)c1ccc(C#Cc2cc(F)ccc2F)cn1)C(C)(C)C` [Example 12]: in series [1], the “HTD/LTD Dose (rat)” value was 100 mg/kg and the “HTD/LTD Dose (rat) (observation)” value is on record as “well tolerated”. For the same molecule, the minimal effective dose in “Body temperature test” was 0.1 mg/kg. Besides, the “Shift (hum, 10 uM)” value at human mGlu5a receptor [2] is 1.86. The “Shift (rat, 10 uM)” value on mGlu5 receptor came out at 1.62.
As for `CC1(C)CCN(c2ccc(C#Cc3cccc(Cl)c3)cn2)C(=O)C1` [Example 13], in series [1], the “HTD/LTD Dose (rat)” value was found to be 100 mg/kg and the “HTD/LTD Dose (rat) (observation)” value was “seizures”. Besides, the minimal effective dose in the series “Body temperature test” amounted to 0.1 mg/kg. Moreover, on human mGlu5a receptor [2], the “Shift (hum, 10 uM)” value worked out at 4.74. The “Shift (rat, 10 uM)” value on mGlu5 receptor is listed as 3.92.
Take `CN1C(=O)N(c2ccc(C#Cc3ccccc3)cn2)CC1(C)C` [Example 14]: in series [1], the “HTD/LTD Dose (rat)” value came to 3 mg/kg. Also, in the series “Body temperature test”, the minimal effective dose stood at 0.3 mg/kg.
Consider `CC1(C)CCN(c2ccc(C#Cc3ccccc3)cn2)C(=O)O1` [Example 15], for which, in series [1], the “HTD/LTD Dose (rat)” value was found to be 3 mg/kg and the “HTD/LTD Dose (rat) (observation)” value is given as “seizures”. Besides, in “Body temperature test”, the minimal effective dose was found to be 0.1 mg/kg. The “Shift (hum, 10 uM)” value at human mGlu5a receptor [2] is given as 9.73. In addition, the “Shift (rat, 10 uM)” value on mGlu5 receptor was found to be 7.67. Moreover, the efficacy result at human mGlu5a receptor [3] is “high efficacy”.
Consider `C(#Cc1cnc2nc(N3CCOCC3)nn2c1)c1ccccc1` [Example 16], for which, in series [1], the “HTD/LTD Dose (rat)” value is 10 mg/kg and the “HTD/LTD Dose (rat) (observation)” value is recorded as “seizures”. Further, in “Body temperature test”, the minimal effective dose turned out to be 3 mg/kg. In addition, on human mGlu5a receptor [2], the “Shift (hum, 10 uM)” value came to 12.13. Also, the “Shift (rat, 10 uM)” value at mGlu5 receptor was 11.31.
Taken in the same sequence, the figures for `CC1(C)CCN(c2ccc(C#Cc3ccccc3)cn2)C(=O)C1` [Example 17] were 100 mg/kg, “seizures”, 0.1 mg/kg, 15.95 and 12.93.
